From PubChem BioAssay (NCI)
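48-hour exposure; five concentrations; linearly interpolated endpoints. TGI: total growth inhibition.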

How the values were obtained:
Test in all cases: NCI tumour cell line growth inhibition, 48 h
HL-60(TB) leukemia = system: HL-60(TB) leukemia
SK-MEL-5 melanoma = system: SK-MEL-5 melanoma
M19-MEL melanoma = system: M19-MEL melanoma
NCI-H522 lung = system: NCI-H522 lung
HCC-2998 colon = system: HCC-2998 colon
SF-268 CNS = system: SF-268 CNS
EKVX NSCLC = system: EKVX NSCLC
MOLT-4 leukemia = system: MOLT-4 leukemia
XF 498 CNS = system: XF 498 CNS
SN12C renal = system: SN12C renal
HCT-116 colon = system: HCT-116 colon
RXF 393 renal = system: RXF 393 renal
HOP-18 NSCLC = system: HOP-18 NSCLC
UACC-62 melanoma = system: UACC-62 melanoma
DMS 273 small cell lung = system: DMS 273 small cell lung
U251 CNS = system: U251 CNS
SK-OV-3 ovarian = system: SK-OV-3 ovarian
UO-31 renal = system: UO-31 renal
SR leukemia = system: SR leukemia
LXFL 529 NSCLC = system: LXFL 529 NSCLC
HT29 colon = system: HT29 colon
786-0 renal = system: 786-0 renal
IGROV1 ovarian = system: IGROV1 ovarian
MALME-3M melanoma = system: MALME-3M melanoma
NCI-H460 lung = system: NCI-H460 lung
SK-MEL-28 melanoma = system: SK-MEL-28 melanoma
SNB-78 CNS = system: SNB-78 CNS
KM20L2 colon = system: KM20L2 colon
A498 renal = system: A498 renal
SNB-75 CNS = system: SNB-75 CNS
DMS 114 small cell lung = system: DMS 114 small cell lung
M14 melanoma = system: M14 melanoma
CCRF-CEM leukemia = system: CCRF-CEM leukemia
COLO 205 colon = system: COLO 205 colon
SF-295 CNS = system: SF-295 CNS
SNB-19 CNS = system: SNB-19 CNS
SW-620 colon = system: SW-620 colon
TK-10 renal = system: TK-10 renal
HOP-62 NSCLC = system: HOP-62 NSCLC
KM12 colon = system: KM12 colon
ACHN renal = system: ACHN renal
OVCAR-3 ovarian = system: OVCAR-3 ovarian
UACC-257 melanoma = system: UACC-257 melanoma
DLD-1 colon = system: DLD-1 colon
HOP-92 NSCLC = system: HOP-92 NSCLC
SK-MEL-2 melanoma = system: SK-MEL-2 melanoma
CAKI-1 renal = system: CAKI-1 renal
OVCAR-8 ovarian = system: OVCAR-8 ovarian
NCI-H23 lung = system: NCI-H23 lung
HCT-15 colon = system: HCT-15 colon
A549 NSCLC = system: A549 NSCLC
NCI-H226 lung = system: NCI-H226 lung
SF-539 CNS = system: SF-539 CNS
OVCAR-4 ovarian = system: OVCAR-4 ovarian
K-562 leukemia = system: K-562 leukemia
OVCAR-5 ovarian = system: OVCAR-5 ovarian
LOX IMVI melanoma = system: LOX IMVI melanoma
RPMI-8226 leukemia = system: RPMI-8226 leukemia
NCI/ADR-RES ovarian = system: NCI/ADR-RES ovarian
SN12K1 renal = system: SN12K1 renal
MCF7 breast = system: MCF7 breast
P388 leukemia = system: P388 leukemia

Measured: TGI

COc1ccc2nc(NC(=O)C(=O)CC(=O)c3ccc(Cl)cc3)sc2c1
53.2 µM: OVCAR-4 ovarian
98.4 µM: SF-539 CNS
99.1 µM: SNB-75 CNS
not listed: K-562 leukemia | OVCAR-5 ovarian | LOX IMVI melanoma | RPMI-8226 leukemia | NCI/ADR-RES ovarian | SN12K1 renal | MCF7 breast | P388 leukemia
> 100 µM: all other assays above

Cc1ccc(C2=Nc3ccccc3NC(=O)C2)cc1
93.4 µM: XF 498 CNS
not listed: RPMI-8226 leukemia | NCI/ADR-RES ovarian | SN12K1 renal | MCF7 breast | P388 leukemia
> 100 µM: all other assays above

C=CCN=C1N=C(CC(=O)OCC)CS1
not listed: MOLT-4 leukemia | SR leukemia | RPMI-8226 leukemia | NCI/ADR-RES ovarian | SN12K1 renal | MCF7 breast | P388 leukemia
> 100 µM: all other assays above

COc1ccc(/C=C2\CNC/C(=C\c3ccc(OC)cc3)C2=O)cc1
89.6 µM: KM20L2 colon
65.2 µM: K-562 leukemia
44.8 µM: CCRF-CEM leukemia
41.6 µM: SF-539 CNS
13 µM: HCT-116 colon
79.2 µM: SF-268 CNS
81.2 µM: CAKI-1 renal
21.1 µM: LOX IMVI melanoma
35.2 µM: OVCAR-8 ovarian
38.5 µM: HL-60(TB) leukemia
60.1 µM: NCI-H23 lung
53.8 µM: RXF 393 renal
not listed: NCI-H522 lung | A498 renal | NCI/ADR-RES ovarian | SN12K1 renal | MCF7 breast | P388 leukemia
> 100 µM: all other assays above

O=S(=O)(O)c1ccc(N=Nc2ccc(N=Nc3ccc(/C=C/c4ccc(N=[N+]([O-])c5ccc(/C=C/c6ccc(N=Nc7ccc(N=Nc8ccc(S(=O)(=O)O)cc8)c8ccccc78)cc6S(=O)(=O)O)c(S(=O)(=O)O)c5)cc4S(=O)(=O)O)c(S(=O)(=O)O)c3)c3ccccc23)cc1
99.7 µM: NCI-H522 lung
not listed: SR leukemia | LXFL 529 NSCLC | 786-0 renal | M14 melanoma | SNB-19 CNS | TK-10 renal | ACHN renal | CAKI-1 renal
> 100 µM: all other assays above
